US5731286A, “Cyclic neurokinin A antagonists” (Merrell Pharmaceuticals, Inc., priority 1997, dated 1998)

Test system: rat urinary bladder
Assay: In situ rat urinary bladder preparation, NKA-induced bladder contraction
Format: in vivo
Experimental: FIG. 6. […] Continuous tracing shown for each animal.
Rats, (female Sprague-Dawley, 150-200 g) were anesthetized with ketamine HCl (100 mg/kg i.p.) supplemented with urethane (1.2 g/kg i.p.). […] A needle was inserted into the apex of the bladder dome and saline was perfused through the bladder at a rate of 100 μl per minute. Bladder outflow was collected via a polyethylene cannula inserted into the urethra. Bladder contractions were monitored through a flow pressure transducer connected in series with the perfusion system. Test compounds were applied onto the bladder dome in 40-100 μl of saline or saline containing a minimum of DMSO. […] Antagonist was similarly applied onto the bladder 5 min before a repeated application of NKA. […] Amplitude (force) of contraction and 1-min time intervals were recorded continuously for each animal.

Question: For neurokinin A [NKA], which “Effect on bladder contraction when applied onto the dome of the exposed bladder” value (anesthetized rats, 10 μg topical) is on record?
Answer: The value was “sustained tonic contraction and an increase in frequency”.

Question: And the “Threshold concentration for contraction” value (applied onto bladder dome, anesthetized rats)?
Answer: The value was “approximately 10 μg”.

Question: What about the “Tachyphylaxis on repeated application” value (repeated application of 10 μg) of the same substance?
Answer: Its value is “did not result in any tachyphylaxis”.
